Values after ≈ are worked out from the molar mass of the structure shown. Where two headings read alike, the source gives them in different places.
What was measured:
[1] = test system: NO production in lipopolysaccharide (LPS)-stimulated RAW 264.7 cells; assay: Inhibition of NO production in LPS-stimulated RAW 264.7 cells (Griess assay); type: cell-based; details: for IC50 / inhibition at 500 µg/mL: Mus musculus; for IC50: RAW264.7, LPS-stimulated RAW 264.7 cells; for IC50 / IC50 for the inhibition of NO production: tested 0.8–500 µg/mL, mean of three replicates ± SD; for inhibition at 500 µg/mL: RAW264.7; for inhibition at 500 µg/mL / IC50 for the inhibition of NO production: LPS-stimulated RAW 264.7 cells
Method: It was supplemented with 10% fetal bovine serum (FBS) and incubated at 37 °C in humidified air with 5% CO2. […] Next, 100 μL of Griess reagent (50 μL of 1% (w/v) sulfanilamide in 5% (v/v) phosphoric acid and 50 μL of 0.1% (w/v) N-1-naphthylethylenediamine dihydrochloride) was added, and it was incubated at room temperature for about 10 min. The Griess Reagent System from Promega Cooperation (USA) was used to determine the presence of nitrite. The microplate reader was used to assess absorption at 540 nm. N^G-Methyl-L-arginine acetate (L-NMMA) (Sigma) was used as a positive control at doses of […]. […] The experiments were repeated at least three times independently.

[2] = biological target: α-glucosidase from Saccharomyces cerevisiae (Saccharomyces cerevisiae, UniProt P53341); assay: In vitro α-glucosidase inhibition (p-NPG substrate); details: for IC50: IC50 for inhibition of α-glucosidase, tested 1–256 µg/mL, mean of three replicates ± SD; for inhibition at 1 µg/mL / inhibition at 4 µg/mL / inhibition at 16 µg/mL / inhibition at 64 µg/mL / inhibition at 256 µg/mL: read-out: α-Glucosidase Inhibition (%);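 as to all read-outs here: yeast α-glucosidase at 0.2 U/mL with p-nitrophenyl α-D-glucopyranoside substrate in 100 mM potassium phosphate pH 6.8, product read by absorbance at 410 nm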
[3] = biological target: acetylcholinesterase (AChE) (Homo sapiens, UniProt P22303); assay: biochemical
Method: The acetylcholinesterase activity was determined by a colorimetric assay based on Ellman’s methodology. […] They were dissolved in DMSO and then diluted with buffer (50 mM of Tris-HCl, with a pH of 8 containing 0.1 M NaCl), 0.1% bovine serum albumin (BSA), 25 µL of acetylthiocholine iodide. The plate was incubated at 25 °C for 15 min. […] Each assay was done in triplicate. The percentage of inhibition of AChE was determined by the following formula: Inhibition (%) = [(OD of control − OD of sample)/OD of control] × 100.

NO formation = test system: NO formation; parameters: method as in doi:10.20307/nps.2019.25.1.34; details: at 40 µg/mL; ursolic acid isolated from Phryma leptostachya var. asiatica; cited from earlier work
RAW 264.7 cells = assay: Cell viability (MTT) assay for cytotoxicity; type: cell-based
Method: The cells were diluted to a suitable cell density. One hundred eighty microliters of the cells were added to each well of the plate and incubated at 37 °C, 5% CO2 for 72 h. After the incubation, 10 µL of MTT solution (5 mg/mL) was added. […] Cell viability was calculated based on the formula as follows:Cell viability (%) = [(OD Sample)/(OD Control)] × 100%, where OD is the optical density recorded at 540 nm.

α-glucosidase = details: cited from earlier work
NO production = details: at a high concentration of 1000 µM; cited from earlier work
[4] = cell viability assay, concentrations as in NO assay
[5] = tested 1 to 256 µg/mL, triplicate, read-out: IC50 for acetylcholinesterase inhibition (converted)

Sequence of acetylcholinesterase (AChE) (P22303 32-614): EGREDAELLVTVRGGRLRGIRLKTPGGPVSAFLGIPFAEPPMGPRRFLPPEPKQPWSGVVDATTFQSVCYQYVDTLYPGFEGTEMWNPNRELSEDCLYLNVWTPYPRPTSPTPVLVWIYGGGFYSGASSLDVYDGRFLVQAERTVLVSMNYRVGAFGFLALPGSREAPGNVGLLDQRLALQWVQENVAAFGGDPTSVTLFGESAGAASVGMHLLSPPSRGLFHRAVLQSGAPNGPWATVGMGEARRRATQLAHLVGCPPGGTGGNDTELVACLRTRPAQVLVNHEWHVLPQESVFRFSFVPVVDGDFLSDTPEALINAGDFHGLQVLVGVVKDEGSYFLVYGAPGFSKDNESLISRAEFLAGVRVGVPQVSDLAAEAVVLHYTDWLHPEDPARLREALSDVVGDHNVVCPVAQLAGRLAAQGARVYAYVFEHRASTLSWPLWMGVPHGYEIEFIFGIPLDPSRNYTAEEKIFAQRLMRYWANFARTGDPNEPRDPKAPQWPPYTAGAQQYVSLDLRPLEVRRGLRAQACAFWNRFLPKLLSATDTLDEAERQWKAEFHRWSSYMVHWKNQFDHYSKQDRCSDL
Sequence of α-glucosidase from Saccharomyces cerevisiae (P53341 whole entry): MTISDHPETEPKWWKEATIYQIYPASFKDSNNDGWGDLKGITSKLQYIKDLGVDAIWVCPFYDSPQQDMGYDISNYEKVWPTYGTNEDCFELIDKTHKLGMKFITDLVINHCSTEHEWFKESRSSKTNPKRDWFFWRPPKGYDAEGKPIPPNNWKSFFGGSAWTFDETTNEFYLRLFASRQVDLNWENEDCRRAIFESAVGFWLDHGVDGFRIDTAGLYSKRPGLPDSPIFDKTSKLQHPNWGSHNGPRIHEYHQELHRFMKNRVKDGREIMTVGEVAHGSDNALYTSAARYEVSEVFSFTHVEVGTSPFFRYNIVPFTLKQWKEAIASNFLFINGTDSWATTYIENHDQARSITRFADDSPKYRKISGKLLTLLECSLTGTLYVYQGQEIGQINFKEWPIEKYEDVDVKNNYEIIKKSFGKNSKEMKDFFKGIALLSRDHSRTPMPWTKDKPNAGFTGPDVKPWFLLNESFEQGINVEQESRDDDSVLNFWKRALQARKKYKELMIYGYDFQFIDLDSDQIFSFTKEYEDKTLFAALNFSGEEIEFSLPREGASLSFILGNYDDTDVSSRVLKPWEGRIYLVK

Row | Structure (SMILES) | IC50 [1] [µg/mL] | Fold Change [2] | IC50 [2] [µM] | inhibition at 1 µg/mL [2] [%] | inhibition at 4 µg/mL [2] [%] | inhibition at 16 µg/mL [2] [%] | inhibition at 64 µg/mL [2] [%] | inhibition at 256 µg/mL [2] [%] | inhibition at 500 µg/mL [1] [%] | IC50 [3] [µM] | Effect on NO formation (NO formation) [%] | Reduction of cell growth (RAW 264.7 cells; at 100 µg/mL, RAW 264.7 cells, MTT) [%] | Cytotoxicity against RAW 264.7 cells (RAW 264.7 cells; [4]) | IC50 [3, 5] [µM] | Manner of α-glucosidase inhibition (α-glucosidase) | IC50 for the inhibition of NO production [1] [µg/mL] | Blocking of NO production (NO production) | IC50 α-glucosidase (α-glucosidase; compounds isolated from Clinopodium taxifolium) [µg/mL] | Cytotoxicity against RAW 264.7 cells (RAW 264.7 cells)
1 | [H]/N=C(/NC)NCCC[C@H](N)C(=O)O [L-NMMA, N^G-Methyl-L-arginine acetate, reference compound] | 8.6 |  |  |  |  |  |  |  |  |  |  |  |  |  |  |  |  |  | 
2 | O=c1c(-c2ccc(O)cc2)coc2cc(O[C@@H]3O[C@H](CO)[C@@H](O)[C@H](O)[C@H]3O)ccc12 [Compound 9, daidzin] | > 500 | <0.663 | > 615 | 0 | 0 | 4 | 10 | 22 | 39.5 | > 615 |  |  |  |  |  |  |  |  | 
3 | C[C@H]1[C@H](C)CC[C@]2(C(=O)O)CC[C@]3(C)C(=CC[C@@H]4[C@@]5(C)CC[C@H](O)C(C)(C)[C@@H]5CC[C@]43C)[C@H]12 [Compound 5, ursolic acid] | 43.9 ± 3.7 (≈ 96.1 µM) |  | 2.41 | 48.5 | 91.5 | 95 | 98 | 99 | 84 |  | 80.6 | 23.3 | moderate cytotoxicity | 17.5 | non-competitive |  |  |  | 
4 | C[C@@H]1CC[C@]2(C(=O)O)CC[C@]3(C)C(=CC[C@@H]4[C@@]5(C)CC[C@H](O)[C@@](C)(CO)[C@@H]5CC[C@]43C)[C@@H]2[C@]1(C)O [Compound 2, rotundic acid] | 241 (≈ 494 µM) | <0.663 | > 524 | 1 | 1 | 1 | 4 | 33 |  |  |  |  |  | > 524 |  | 241.3 ± 8.2 |  |  | 
5 | COc1cc(/C=C/CO)cc(OC)c1O[C@@H]1O[C@H](CO)[C@@H](O)[C@H](O)[C@H]1O [Compound 8, syringin] | 303 ± 11 (≈ 814 µM) | <0.663 | > 687 | 0 | 1 | 8 | 9 | 12 |  | > 687 |  |  |  |  |  |  | not blocked |  | 
6 | C[C@H]1[C@H](C)CC[C@]2(CO)CC[C@]3(C)C(=CC[C@@H]4[C@@]5(C)CC[C@H](O)C(C)(C)[C@@H]5CC[C@]43C)[C@H]12 [Compound 4, uvaol] | 246 (≈ 557 µM) |  |  |  |  |  |  |  |  | > 578 |  |  |  |  |  | 246.5 ± 18.7 |  | 521.0 (≈ 1180 µM) | 
7 | COc1ccc2c(c1)OC[C@H]1c3cc4c(cc3O[C@@H]21)OCO4 [Compound 7, pterocarpin] | 229 ± 18.6 (≈ 767 µM) | <0.663 | > 858 | 0 | 3 | 3 | 12 | 25 |  |  |  |  |  | > 858 |  |  |  |  | 
8 | C[C@H]1C(=O)CC[C@@H]2[C@]1(C)CC[C@H]1[C@@]2(C)CC[C@@]2(C)[C@@H]3CC(C)(C)CC[C@]3(C)CC[C@]12C [Compound 1, friedelin] | > 500 | <0.663 | > 600 | 1 | 1 | 13 | 20 | 23 | 37.6 | > 600 |  |  |  |  |  |  |  |  | 
9 | C[C@H]1O[C@H](O[C@H]2[C@H](O)[C@@H](O)[C@@H](O[C@H]3[C@H](O)[C@@H](O)C(O)O[C@@H]3CO)O[C@@H]2CO)[C@H](O)[C@@H](O)[C@@H]1N[C@H]1C=C(CO)[C@@H](O)[C@H](O)[C@H]1O (stereo partly shown) [acarbose, reference compound] |  |  |  | 0 | 5 | 18 | 23 | 72 |  |  |  |  |  |  |  |  |  |  | 
10 | C[C@@H]1CC[C@]2(C(=O)O[C@@H]3O[C@H](CO)[C@@H](O)[C@H](O)[C@H]3O)CC[C@]3(C)C(=CC[C@@H]4[C@@]5(C)CC[C@H](O)[C@@](C)(CO)[C@@H]5CC[C@]43C)[C@@H]2[C@]1(C)O [Compound 3, pedunculoside] | 273 ± 8.2 (≈ 420 µM) | 0.918 | 284 | 1 | 3 | 9.5 | 32 | 60.5 |  | > 393 |  |  |  |  |  |  |  |  | without cytotoxicity
11 | C[C@@H]1O[C@@H](OC[C@H]2O[C@@H](Oc3c(-c4ccc(O)c(O)c4)oc4cc(O)cc(O)c4c3=O)[C@H](O)[C@@H](O)[C@@H]2O)[C@H](O)[C@H](O)[C@H]1O [Compound 10, rutin] | 450 ± 5.2 (≈ 736 µM) |  | 3.6 | 34.5 | 74 | 78 | 82.5 | 85 |  | 419 |  |  |  |  |  |  |  |  | 
12 | CC(C)=CCC[C@](C)(O[C@@H]1O[C@H](CO[C@@H]2O[C@H](CO)[C@@H](O)[C@H](O)[C@H]2O)[C@@H](O)[C@H](O)[C@H]1O)[C@H]1CC[C@]2(C)[C@@H]1[C@H](O)C[C@@H]1[C@@]3(C)CC[C@H](O[C@@H]4O[C@H](CO)[C@@H](O)[C@H](O)[C@H]4O)C(C)(C)[C@@H]3CC[C@]12C [Compound 6, gypenoside XVII] | 93.9 ± 5.4 (≈ 99.1 µM) | <0.663 | > 270 | 1 | 5 | 17 | 21 | 34 |  | > 270 |  |  | no cytotoxicity |  |  |  |  |  | 
